Results taken from the supplement of paper PMC10331698.
± gives the standard deviation of the averaged measurements.

Key:
Assay in all cases: level (log10 ratio to DMSO vehicle control); higher = higher biomarker level / cell amount than vehicle control
Conditions in all cases: in DMSO
[1] = compound: C=C(C)C(=O)OCC(F)(F)C(F)(F)C(F)(F)C(F)(F)C(F)(F)C(F)(F)C(F)(F)F
Method: (§1)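 BioMAP Diversity Plus panel of 12 human primary cell co-culture systems (3C, 4H, LPS, SAg, BT, BF4T, BE3C, CASM3C, HDF3CGF, KF3CT, MyoF, Mphg). Compounds were added 1 h before stimulation and left for 24 h (MyoF 48 h; BT 72 h for soluble read-outs or 6 d for IgG). Biomarkers were read by ELISA, cytotoxicity by SRB, PBMC viability and proliferation by Alamar Blue. Each well value was divided by the mean of 8 DMSO control wells on the same plate and log10 transformed; duplicate blinded samples were tested at 4 concentrations.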

[2] = compound: CC(C)(C)C(=O)CC(=O)C(F)(F)C(F)(F)C(F)(F)F [(Heptafluorobutanoyl)pivaloylmethane]
Method: as §1

[3] = compound: O=C(O)C(F)(F)C(F)(F)C(F)(F)C(F)(F)C(F)(F)C(F)(F)C(F)(F)C(F)(F)C(F)(F)C(F)(F)C(F)(F)C(F)(F)C(F)(F)F [Perfluorotetradecanoic acid]
Method: as §1

[4] = compound: O=C(O)C(F)(F)C(F)(F)C(F)(F)C(F)(F)C(F)(F)C(F)(F)C(F)(F)C(F)(F)Cl [9-Chloro-perfluorononanoic acid]
Method: as §1

[5] = compound: O=C(O)C(F)(F)OC(F)(F)C(F)(F)OC(F)(F)C(F)(F)C(F)(F)C(F)(F)F [Perfluoro-3,6-dioxadecanoic acid]
Method: as §1

[6] = compound: O=C(O)CCC(F)(F)C(F)(F)C(F)(F)C(F)(F)C(F)(F)F [2H,2H,3H,3H-Perfluorooctanoic acid]
Method: as §1

[7] = compound: O=S(=O)(O)C(F)(F)C(F)(F)C(F)(F)C(F)(F)C(F)(F)C(F)(F)C(F)(F)C(F)(F)F [Perfluorooctanesulfonic acid]
Method: as §1

| Test System | level (log10) ([1]; 6700 nM) | level (log10) ([1]; 20000 nM) | level (log10) ([2]; 6700 nM) | level (log10) ([2]; 20000 nM) | level (log10) ([2]; 60000 nM) | level (log10) ([3]; 6700 nM) | level (log10) ([3]; 20000 nM) | level (log10) ([4]; 6700 nM) | level (log10) ([4]; 20000 nM) | level (log10) ([5]; 6700 nM) | level (log10) ([5]; 20000 nM) | level (log10) ([5]; 60000 nM) | level (log10) ([6]; 6700 nM) | level (log10) ([6]; 20000 nM) | level (log10) ([6]; 60000 nM) | level (log10) ([7]; 6700 nM) | level (log10) ([7]; 20000 nM) | level (log10) ([7]; 60000 nM) |
| --- | --- | --- | --- | --- | --- | --- | --- | --- | --- | --- | --- | --- | --- | --- | --- | --- | --- | --- |
| 4H:VEGFR2 | 0.0165 ± 0.0064 | 0.0365 ± 0.05 | 0 ± 0.011 | -0.012 ± 0.0071 | -0.0105 ± 0.032 | 0.075 ± 0.11 | 0.084 ± 0.09 | -0.108 ± 0.011 | -0.0395 ± 0.013 | -0.035 ± 0.065 | -0.0105 ± 0.035 | -0.0755 ± 0.036 | 0.008 ± 0.011 | 0.02 ± 0.017 | 0.0155 ± 0.03 | 0.0265 ± 0.029 | 0.0155 ± 0.0064 | 0.019 ± 0.042 |
| 4H:SRB | 0.0005 ± 0.029 | -0.0035 ± 0.018 | -0.007 ± 0.0014 | -0.005 ± 0.0071 | -0.0095 ± 0.016 | -0.014 ± 0.028 | -0.0155 ± 0.063 | -0.0015 ± 0.00071 | -0.0055 ± 0.0035 | -0.005 ± 0.018 | -0.002 ± 0.0057 | -0.065 ± 0.041 | -0.004 ± 0.0099 | -0.0115 ± 0.016 | -0.001 ± 0.014 | -0.0005 ± 0.012 | -0.0065 ± 0.011 | -0.0085 ± 0.023 |
| BF4T:CD54/ICAM-1 | -0.0015 ± 0.016 | -0.0075 ± 0.0064 | -0.006 ± 0.0014 | -0.0145 ± 0.005 | -0.0155 ± 0.015 | -0.002 ± 0.0099 | 0.0175 ± 0.025 | -0.0085 ± 0.0021 | -0.0355 ± 0.0064 | -0.04 ± 0.0057 | -0.0335 ± 0.0035 | -0.0365 ± 0.005 | -0.0175 ± 0.018 | -0.0115 ± 0.0021 | -0.0075 ± 0.0092 | -0.0065 ± 0.019 | -0.0115 ± 0.028 | -0.018 ± 0.014 |
